This is an account of results in PMC2826609 (Peptides, 2009).

Positions of bridges follow the written chain, without caps; N, C: chain ends. Residues, ends and D or L forms follow the SMILES beside them.

The target of experiment [1] is Aedes aegypti allatostatin-C receptor AeAS-CrB (Aedes aegypti, UniProt A0A411JKA7). Format: cell-based.
Experiment [2] has as its target Aedes aegypti allatostatin-C receptor AeAS-CrA (Aedes aegypti, UniProt A0A411JKC3). Format: cell-based.

For orientation: EC50 means the midpoint of the concentration-response curve. A low value points to higher potency in that assay. On to `CC[C@H](C)[C@H](NC(=O)[C@@H](N)CCC(N)=O)C(=O)N[C@@H](CCCNC(=N)N)C(=O)N[C@@H](Cc1ccc(O)cc1)C(=O)N[C@@H](CCCNC(=N)N)C(=O)N[C@@H](CCC(N)=O)C(=O)N[C@H]1CSSC[C@@H](C(=O)N[C@@H](Cc2ccccc2)C(=O)O)NC(=O)[C@H](CO)NC(=O)[C@H]([C@@H](C)CC)NC(=O)[C@@H]2CCCN2C(=O)[C@H](CC(N)=O)NC(=O)[C@H](Cc2ccccc2)NC(=O)[C@H](Cc2ccc(O)cc2)NC1=O` [AS-C] (H-QIRYRQCYFNPISCF-OH; disulfide 7-14), for which the results for the EC50 in experiment [1] and in experiment [2] were 27.7 ± 7.2 nM and 89 ± 18.5 nM, respectively.
As for APFRNSEMMTARGF [AT], the “FLIPR signal, peptide selectivity (AeAS-CrB)” value in experiment [1] (AeAS-CrB, HEK293T/Gα16gust44 cells, results not shown) is reported as “no signal was detected”. The “FLIPR signal, peptide selectivity (AeAS-CrA)” value in experiment [2] (AeAS-CrA, HEK293T/Gα16gust44 cells, results not shown) is recorded as “no signal was detected”.
